According to ChEMBL document CHEMBL5291721, “A preclinical secondary pharmacology resource illuminates target-adverse drug reaction associations of marketed drugs” (Nat Commun, 2023):

What was measured:
[1] = molecular target: T1, Gastrin/cholecystokinin type B receptor (Homo sapiens, UniProt P32239)
T1 sequence (P32239 whole entry): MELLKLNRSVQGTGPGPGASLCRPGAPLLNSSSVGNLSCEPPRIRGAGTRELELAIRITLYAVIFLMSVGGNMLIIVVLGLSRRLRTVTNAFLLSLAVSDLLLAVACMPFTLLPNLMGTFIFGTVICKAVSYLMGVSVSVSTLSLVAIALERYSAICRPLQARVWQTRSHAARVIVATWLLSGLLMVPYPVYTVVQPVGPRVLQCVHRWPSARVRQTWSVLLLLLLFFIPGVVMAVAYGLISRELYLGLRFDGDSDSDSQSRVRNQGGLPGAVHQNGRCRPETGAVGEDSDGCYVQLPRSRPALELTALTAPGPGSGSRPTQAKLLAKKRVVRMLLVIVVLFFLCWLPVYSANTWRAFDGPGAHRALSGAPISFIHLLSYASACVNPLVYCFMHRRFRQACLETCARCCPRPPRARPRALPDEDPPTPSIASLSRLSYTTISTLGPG

[2] = molecular target: T2, 5-hydroxytryptamine receptor 1A (Homo sapiens, UniProt P08908); format: functional, cell-based
T2 sequence (P08908 whole entry): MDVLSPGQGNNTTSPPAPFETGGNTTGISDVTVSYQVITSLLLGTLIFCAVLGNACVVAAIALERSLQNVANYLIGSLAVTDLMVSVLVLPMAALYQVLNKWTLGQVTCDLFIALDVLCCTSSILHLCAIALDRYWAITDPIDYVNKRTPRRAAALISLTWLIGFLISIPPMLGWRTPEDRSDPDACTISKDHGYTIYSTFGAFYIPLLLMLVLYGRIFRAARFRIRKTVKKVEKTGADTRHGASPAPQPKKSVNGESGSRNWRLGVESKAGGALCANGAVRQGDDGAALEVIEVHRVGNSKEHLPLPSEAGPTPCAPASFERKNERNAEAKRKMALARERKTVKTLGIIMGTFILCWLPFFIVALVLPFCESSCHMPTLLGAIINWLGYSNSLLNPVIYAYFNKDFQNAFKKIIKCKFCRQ

Vasopressin V1a receptor = Vasopressin V1a receptor (Homo sapiens, UniProt P37288)
[3] = molecular target: Sodium-dependent noradrenaline transporter (Homo sapiens, UniProt P23975)
[4] = molecular target: T3, Equilibrative nucleoside transporter 1 (Homo sapiens, UniProt Q99808)
T3 sequence (Q99808 whole entry): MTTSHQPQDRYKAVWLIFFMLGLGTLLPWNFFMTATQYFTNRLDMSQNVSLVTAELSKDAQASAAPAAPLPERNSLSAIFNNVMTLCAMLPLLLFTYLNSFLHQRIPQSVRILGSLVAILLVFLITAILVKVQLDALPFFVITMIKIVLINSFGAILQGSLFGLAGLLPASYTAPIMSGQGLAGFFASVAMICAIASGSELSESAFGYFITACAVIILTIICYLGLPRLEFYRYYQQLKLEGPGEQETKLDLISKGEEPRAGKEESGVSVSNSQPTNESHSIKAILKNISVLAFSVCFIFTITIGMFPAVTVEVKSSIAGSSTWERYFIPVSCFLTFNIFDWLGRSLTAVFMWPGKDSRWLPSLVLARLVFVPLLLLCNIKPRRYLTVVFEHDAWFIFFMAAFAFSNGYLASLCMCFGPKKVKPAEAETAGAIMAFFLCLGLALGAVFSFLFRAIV

[5] = molecular target: Sodium-dependent serotonin transporter (Homo sapiens, UniProt P31645)
[6] = molecular target: T4, Muscarinic acetylcholine receptor M1 (Homo sapiens, UniProt P11229); format: functional
T4 sequence (P11229 whole entry): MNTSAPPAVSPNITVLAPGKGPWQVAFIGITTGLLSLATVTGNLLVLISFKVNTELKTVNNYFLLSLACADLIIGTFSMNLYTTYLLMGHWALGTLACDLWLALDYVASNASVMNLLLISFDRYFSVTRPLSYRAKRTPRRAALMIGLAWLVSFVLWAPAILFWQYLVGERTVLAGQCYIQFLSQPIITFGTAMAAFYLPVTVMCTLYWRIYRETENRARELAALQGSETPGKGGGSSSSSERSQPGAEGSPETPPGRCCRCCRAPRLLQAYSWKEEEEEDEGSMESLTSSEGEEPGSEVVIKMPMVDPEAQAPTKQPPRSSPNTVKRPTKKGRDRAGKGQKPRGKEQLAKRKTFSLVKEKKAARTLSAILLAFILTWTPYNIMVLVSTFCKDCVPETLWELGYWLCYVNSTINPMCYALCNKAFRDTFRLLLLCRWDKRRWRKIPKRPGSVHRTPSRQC

Progesterone receptor [7] = molecular target: T5, Progesterone receptor (Homo sapiens, UniProt P06401); format: functional
T5 sequence (P06401 whole entry): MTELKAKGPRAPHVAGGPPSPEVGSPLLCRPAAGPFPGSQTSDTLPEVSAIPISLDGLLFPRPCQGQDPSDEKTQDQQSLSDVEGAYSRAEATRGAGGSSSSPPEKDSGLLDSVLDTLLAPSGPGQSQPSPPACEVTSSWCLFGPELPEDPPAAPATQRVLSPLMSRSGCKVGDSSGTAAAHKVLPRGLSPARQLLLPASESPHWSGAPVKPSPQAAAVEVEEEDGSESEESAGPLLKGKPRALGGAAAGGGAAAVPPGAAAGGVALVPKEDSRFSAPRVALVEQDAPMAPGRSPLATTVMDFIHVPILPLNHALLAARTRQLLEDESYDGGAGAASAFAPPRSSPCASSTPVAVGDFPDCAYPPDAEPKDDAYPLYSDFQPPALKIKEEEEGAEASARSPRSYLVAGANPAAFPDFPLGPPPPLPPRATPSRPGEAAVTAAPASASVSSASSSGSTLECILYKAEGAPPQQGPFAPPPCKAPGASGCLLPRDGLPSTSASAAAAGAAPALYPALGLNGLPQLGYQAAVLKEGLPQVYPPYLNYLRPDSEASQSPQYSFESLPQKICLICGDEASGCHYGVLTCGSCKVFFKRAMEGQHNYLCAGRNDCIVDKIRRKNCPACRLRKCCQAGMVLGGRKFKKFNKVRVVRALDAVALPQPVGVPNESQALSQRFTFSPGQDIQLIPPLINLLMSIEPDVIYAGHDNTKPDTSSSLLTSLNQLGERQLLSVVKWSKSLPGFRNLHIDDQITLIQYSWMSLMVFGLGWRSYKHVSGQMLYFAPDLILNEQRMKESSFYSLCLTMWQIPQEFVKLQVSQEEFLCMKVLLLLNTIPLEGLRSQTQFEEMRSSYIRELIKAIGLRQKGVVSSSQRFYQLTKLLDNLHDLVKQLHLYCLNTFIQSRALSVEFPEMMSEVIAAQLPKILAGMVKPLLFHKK

Progesterone receptor [8] = molecular target: T5, Progesterone receptor; format: functional; remark: listed apart in the source
Also: assay procedure not described here.

Sequence of Vasopressin V1a receptor (P37288 whole entry): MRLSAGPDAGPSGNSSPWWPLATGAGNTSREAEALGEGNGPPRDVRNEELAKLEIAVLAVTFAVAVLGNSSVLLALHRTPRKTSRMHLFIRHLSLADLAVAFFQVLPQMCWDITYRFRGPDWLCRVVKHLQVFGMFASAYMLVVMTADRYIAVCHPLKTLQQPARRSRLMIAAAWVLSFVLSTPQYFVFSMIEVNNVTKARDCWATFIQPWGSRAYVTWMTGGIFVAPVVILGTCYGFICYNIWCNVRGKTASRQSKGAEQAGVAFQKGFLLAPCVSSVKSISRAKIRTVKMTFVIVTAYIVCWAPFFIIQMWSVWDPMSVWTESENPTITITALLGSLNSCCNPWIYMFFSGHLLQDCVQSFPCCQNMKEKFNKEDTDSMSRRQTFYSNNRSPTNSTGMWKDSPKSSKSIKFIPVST
Sequence of Sodium-dependent serotonin transporter (P31645 whole entry): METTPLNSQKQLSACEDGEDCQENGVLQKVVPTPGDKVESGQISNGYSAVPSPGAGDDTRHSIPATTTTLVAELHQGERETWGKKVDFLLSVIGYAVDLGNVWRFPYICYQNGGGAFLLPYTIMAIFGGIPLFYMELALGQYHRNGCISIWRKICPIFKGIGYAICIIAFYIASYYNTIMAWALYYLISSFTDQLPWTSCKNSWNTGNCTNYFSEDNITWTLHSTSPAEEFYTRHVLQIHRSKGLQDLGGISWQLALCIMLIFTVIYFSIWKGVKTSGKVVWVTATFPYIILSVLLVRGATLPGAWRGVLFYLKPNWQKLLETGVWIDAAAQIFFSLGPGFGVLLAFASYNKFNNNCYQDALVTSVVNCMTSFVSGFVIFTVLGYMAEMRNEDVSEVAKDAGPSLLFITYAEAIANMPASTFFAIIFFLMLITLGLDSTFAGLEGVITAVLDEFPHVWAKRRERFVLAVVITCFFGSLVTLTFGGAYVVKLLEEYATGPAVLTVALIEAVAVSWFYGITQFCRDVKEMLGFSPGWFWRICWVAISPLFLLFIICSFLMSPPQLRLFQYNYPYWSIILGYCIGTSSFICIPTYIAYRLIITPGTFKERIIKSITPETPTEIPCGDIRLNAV
Sequence of Sodium-dependent noradrenaline transporter (P23975 whole entry): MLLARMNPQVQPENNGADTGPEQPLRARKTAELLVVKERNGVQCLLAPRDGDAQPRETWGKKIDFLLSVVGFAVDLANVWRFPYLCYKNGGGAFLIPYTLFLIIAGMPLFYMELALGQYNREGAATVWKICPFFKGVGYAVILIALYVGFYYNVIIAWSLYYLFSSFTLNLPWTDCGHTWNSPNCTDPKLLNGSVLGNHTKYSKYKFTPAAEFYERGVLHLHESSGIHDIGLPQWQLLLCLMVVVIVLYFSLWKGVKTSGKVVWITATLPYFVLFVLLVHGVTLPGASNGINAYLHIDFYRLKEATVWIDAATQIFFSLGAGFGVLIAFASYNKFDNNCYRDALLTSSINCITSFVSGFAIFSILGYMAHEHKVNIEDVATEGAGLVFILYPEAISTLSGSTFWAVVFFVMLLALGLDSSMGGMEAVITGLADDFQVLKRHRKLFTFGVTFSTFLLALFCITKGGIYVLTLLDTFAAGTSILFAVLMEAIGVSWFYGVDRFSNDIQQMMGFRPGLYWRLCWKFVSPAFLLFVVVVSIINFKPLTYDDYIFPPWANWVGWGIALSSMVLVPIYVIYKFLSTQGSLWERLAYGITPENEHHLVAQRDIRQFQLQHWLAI

| Compound | AC50 [1] [µM] | AC50 [2] [µM] | AC50 (Vasopressin V1a receptor) [µM] | AC50 [3] [µM] | AC50 [4] [µM] | AC50 [5] [µM] | AC50 [6] [µM] | AC50 (Progesterone receptor [7]) [µM] | AC50 (Progesterone receptor [8]) [µM] |
| --- | --- | --- | --- | --- | --- | --- | --- | --- | --- |
| C[C@]12CC[C@H](O)CC1=CC[C@@H]1[C@@H]2CC[C@]2(C)C(c3cccnc3)=CC[C@@H]12 [ABIRATERONE] | > 30 | > 10 | > 30 | > 30 | > 30 | > 30 | > 10 |  |  |
| C[C@@H]1CCC[C@H](C)N1NC(=O)c1ccc(Cl)c(S(N)(=O)=O)c1 [CLOPAMIDE] | > 30 | > 30 | > 30 | > 30 | > 30 | > 30 | > 30 | > 30 | > 30 |
| O=C(O)c1cc(O)c2c3nc4ccccc4oc-3cc(=O)c2n1 [PIRENOXINE] | > 30 | > 30 | > 30 | > 30 | > 30 | > 30 | 6.7 | > 30 | > 30 |
| NS(=O)(=O)c1cc(C(=O)O)cc(N2CCCC2)c1Oc1ccccc1 [PIRETANIDE] | > 30 | > 30 | > 30 | > 30 |  | 0.92 | > 30 | > 30 | > 30 |
| OCCN1CCN(CC/C=C2/c3ccccc3Sc3ccc(Cl)cc32)CC1 [ZUCLOPENTHIXOL] |  | 6.4 | > 10 | 17.4 | > 30 | 8.4 | > 10 | > 10 | > 10 |
